Entries after “also recorded” stand apart in the source; their conditions may differ.
Experiments:
[1] = Color (Hunter coordinates) of Ni complex, swabbed on Ni-coated receptor (CF) sheet; format: physicochemical; design: key to Hunter coordinate a / Hunter Coordinates a: Hunter a: +a red, -a green; key to Hunter coordinate b / Hunter Coordinates b: Hunter b: +b yellow, -b blue; details: for Image Color / Hunter Coordinates L / Hunter Coordinates a / Hunter Coordinates b / Chroma: Ni(II) complex; for Image Color / Chroma: swab concn. 1% (Table 2); for Hunter Coordinates L / Hunter Coordinates a / Hunter Coordinates b: swab concn. 1%, 45°/0° reflectance, illuminant C (Table 2); for Chroma (in words) / color of nickel / transition metal coordination compound (in words): description; for Chroma: C=(a^2 +b^2)^1/2
Protocol: In general, the colors of the complexes, as listed in Table 2 and Experiments 4, 6, and 7 below, were determined by preparing a 1% solution of the color-former or mixture of color-formers in an appropriate solvent. Unless otherwise indicated, the solvent was composed of a mixture of tributyl phosphate (26.5%), diethyl phthalate (17.6%), and cyclohexane (55.9%). The images were formed by applying two stripes of the solution to a substrate coated with a Ni^2+ coated receptor sheet using a cotton tipped applicator swab. Rapid and complete development of the image was achieved by passing the sheet through a hot shoe adjusted to 102° C., making a revolution every 10 seconds. The visually observed colors were measured and recorded.
One method of color measurement is to determine the color's position in color space. One color space system is the Hunter System; see F. W. Billmeyer, Jr., and M. Saltzman, Principles of Color Technology; John Wiley & Sons; New York, N.Y.; Ch. 2 & 3, 1981. In this system three mutually perpendicular axes (L, a, and b) are needed to define a color. "L" (+z axis) represents the lightness or darkness of the image; "a" (x axis) represents the amount of red or green (+a is red, -a is green); and "b" (y axis) represents the amount of yellow or blue (+b is yellow, -b is blue). By measuring a material's L, a, and b values, the color of one sample can be compared with that of other samples. Another value used in the Hunter System is Chroma (C). Chroma is defined by the equation [C=(a^2 +b^2)^1/2 ] and represents the distance of the image coordinates from the origin. The greater the Chroma, the more intense the image. Chroma is used to compare images cf the same hue. Because the color of a sample is also dependent upon the color temperature of the illuminating source, the angle at which the sample is illuminated, the angle at which the illumination is reflected, and the angle of the retina illuminated, these all need to be specified. Many instruments have been developed to record these values. One such instrument is the HunterLab LabScan II. This instrument is capable of automatically determining the L, a, and b values for a given sample, and was used for the following examples.
The L, a, and b color coordinates of the more uniform stripe were measured for 45°/0° reflectance on a HunterLab LabScan II, secondary observer, using illuminant C. The observed (image) color and the Hunter coordinates for Ni^2+ complexes of the yellow color-formers of this invention are given in Table 2.
A 1% solution of the condensation product in the encapsulation fill mix was swabbed onto a carbonless paper CF sheet (sold by the 3M Co. St. Paul, Minn.) with a cotton swab. The reflectance spectra had Hunter coordinates of: […]

[2] = Solubility in capsule fill solvents; format: physicochemical
Protocol: The encapsulation process requires the color-forming ligand be dissolved in a solvent or mixed solvents, because of the nature of the procedure. Formation of a microcapsule shell as by condensation of urea or melamine with an aldehyde such as formaldehyde or mixtures of aldehydes to form the capsule shell is carried out in an acidic aqueous medium and the color-former solution must be insoluble and unreactive to these reagents for the encapsulation to proceed. Solvents commonly used include tributyl phosphate, diethyl phthalate, and cyclohexane. […] As mentioned above, solubility of yellow color-formers exemplified by structure I in nonaqueous solvents such as those used in the encapsulation process may be increased by substituting alkyl, aryl, aralkyl, alkenyl, or such groups for the hydrogens on the various positions available in the structure I above.
This color observed on the CF sheet was yellow. […] Solubility in a solvent blend of tributyl phosphate, diethyl phthalate and cyclohexane (capsule solvents for preparing carbonless copy-paper) was >9% by weight. Thus the ligand is eminently suitable for encapsulation. The ligand is not volatile at 71 ° C. overnight.
Solubility in a solvent blend of tributyl phosphate, diethyl phthalate and cyclohexane (capsule solvents for preparing carbonless copy-paper) was 3% by weight. Thus the ligand is eminently suitable for encapsulation. The ligand is not volatile at 71 ° C. overnight.
*THE SOLUBILITY WAS DEEMED PREFERABLE IF IT WAS GREATER THAN 2% IN THE
FILL MIX AT ROOM TEMPERATURE FOR 3 DAYS. THE FILL MIX COMPRISED
TRIBUTYLPHOSPHATE (26.5%); DIETHYLPHTHALATE (17.6%); AND CYCLOHEXANE

SMILES	Image Color [1]	Hunter Coordinates L [1]	Hunter Coordinates a [1]	Hunter Coordinates b [1]	Chroma (in words) ([1]; nickel complex)	Dye Solubility ([2]; 4320 min)	Chroma [1]	color of nickel / transition metal coordination compound (in words) [1]	measured reflectance density (in words) ([1]; nickel complex)	Dye Solubility ([2]; fill mix tributylphosphate (26.5%), diethylphthalate (17.6%), cyclohexane (55.9%), room temperature, 3 days (Table 2))
NC(=NN=Cc1cccs1)C(N)=NN=Cc1cccs1 [Compound 13, Ethanediimidic acid bis[(2-thienylmethylene)hydrazide]]	Brown	72.6	11.2	13.9	intermediate between that of aliphatic and the preferred o-substituted ligands	< 2.0%	–	–	–	–
CCOC(=O)CC(C)=NN=C(N)C(N)=NN=C(C)CC(=O)OCC [Compound 7]	–	89.4	-5.8	14.3	–	> 2.0%	15.4	–	–	–
NC(=NN=Cc1c(O)ccc2ccccc12)C(N)=NN=Cc1c(O)ccc2ccccc12 [Compound 17, Ethanediimidic acid bis[(2-hydroxy-1-naphthylmethylene)hydrazide]]	Yellow	86.6	-6.5	27.8	–	< 2.0%	28.5	–	–	–
COc1cccc(C=NN=C(N)C(N)=NN=Cc2cccc(OC)c2O)c1O [Compound 10, Ethanediimidic acid bis[(2-hydroxy-3-methoxyphenylmethylene)hydrazide]]	Yellow	86.4	-11.1	34.5	–	< 2.0%	36.2	–	–	–
NC(=NN=Cc1ccccn1)C(N)=NN=Cc1ccccn1 [Compound 14, Ethanediimidic acid bis[(2-pyridylmethylene)hydrazide]]	Yellow	86.5	-11.0	33.2	intermediate between that of aliphatic and the preferred o-substituted ligands	< 2.0%	35.0	–	–	–
CCN(CC)c1ccc(C=NN=C(N)C(N)=NN=Cc2ccc(N(CC)CC)cc2O)c(O)c1 [Compound 5, Ethanediimidic acid bis[(2-hydroxy-4-diethylaminophenylmethylene)hydrazide]]	Yellow	80.9	-5.2	41.0	–	< 2.0%	41.4	–	–	–
CCOc1cccc(C=NN=C(N)C(N)=NN=Cc2cccc(OCC)c2O)c1O [Compound 11, Ethanediimidic acid bis[(2-hydroxy-3-ethoxyphenylmethylene)hydrazide]]	Yellow	88.4	-15.2	36.2	–	< 2.0%	39.3	–	–	–
NC(=NN=C(c1ccccc1)c1ccc(O)cc1O)C(N)=NN=C(c1ccccc1)c1ccc(O)cc1O [Compound 8, Ethanediimidic acid bis[(2,4-dihydroxyphenyl-phenyl-methylene)hydrazide]]	–	88.0	-6.0	17.0	–	< 2.0%	18.0	–	–	–
CCCCCCC=NN=C(N)C(N)=NN=CCCCCCC [Compound 15]	–	89.9	-4.2	10.8	low and low Chroma value	> 2.0%	11.6	very weakly yellow; also recorded: weak yellow	low	–
NC(=NN=Cc1cc(Br)ccc1O)C(N)=NN=Cc1cc(Br)ccc1O [Compound 3, Ethanediimidic acid bis[(2-hydroxy-5-bromophenylmethylene)hydrazide]]	Yellow	81.9	-7.5	40.5	–	< 2.0%	41.1	–	–	–
NC(=NN=Cc1cc([N+](=O)[O-])ccc1O)C(N)=NN=Cc1cc([N+](=O)[O-])ccc1O [Compound 4, Ethanediimidic acid bis[(2-hydroxy-5-nitrophenylmethylene)hydrazide]]	Yellow	83.9	-9.7	38.9	–	–	40.1	–	–	< 2.0%
NC(=NN=Cc1ccco1)C(N)=NN=Cc1ccco1 [Compound 12, Ethanediimidic acid bis[(furylmethylene)hydrazide]]	Yellow	89.4	-10.6	23.5	intermediate between that of aliphatic and the preferred o-substituted ligands	< 2.0%	25.8	–	–	–
CC(C)(C)c1cc(C=NN=C(N)C(N)=NN=Cc2cc(C(C)(C)C)c(O)c(C(C)(C)C)c2)cc(C(C)(C)C)c1O [Compound 2, Ethanediimidic acid bis[(4-hydroxy-3,5-di-t-butylphenylmethylene)hydrazide]]	–	90.0	-8.0	17.6	lower Chroma	> 2.0%	19.2	much weaker	–	–
CC(=NN=C(N)C(N)=NN=C(C)c1ccccc1O)c1ccccc1O [Compound 6, Ethanediimidic acid bis[(2-hydroxyphenyl-methyl-methylene)hydrazide]]	Yellow	48.3	-5.3	19.4	–	< 2.0%	20.1	yellow	–	–

— patent publication US5204311A, “Ethanediimidic acid bis[(arylalkylidene)hydrazide] color-formers” (Minnesota Mining and Manufacturing Company, priority 1991, dated 1993)
